# Measured values: patent US10543215B2, “Combination therapy of cardiac myosin activator and sinus node if current inhibitor” (AMGEN INC., priority 2015, dated 2020)
# System: conscious telemetered beagle dogs
# Test: Left-ventricular hemodynamic, mechanical and timing indices by radio-telemetry before and during IV OM or vehicle, on repeated oral IVA or placebo
# Format: in vivo, beagle dog
# Experimental: Healthy male beagle dogs (n=7) instrumented with radio-telemetry units providing continuous single-lead electrocardiogram (ECG), as well as systemic (arterial, AoP) and left-ventricular (LVP) pressure signals were used for this study. Following sling acclimation, the animals were assigned to receive repeated oral (via gavage) treatments with either Ivabradine (IVA, 5 mg/kg bid) or a volume-matched placebo-control (sterile water, CTRL) for 5 days, administered at a dose volume of 10 mL/kg, in a cross over design.
# The animals were sling-restrained and were subjected to acute intravenous administration of either sterile water (VEH, on Days 4 and 11 of dosing) or Omecamtiv Mecarbil (OM, on Days 5 and 12 of dosing). OM treatments were performed over a 3-hour infusion duration, following a dose-escalation design targeting plasma concentrations of 600 and 1000 ng/mL (each over 90 minutes, with a 30 minute loading infusion followed by a 60 minute maintenance infusion) for a cumulative dose of 5.293 mg/kg (as shown in Table A below). The IV vehicle treatments were time- and volume-matched.
# Telemetered data were collected continuously for at least 90 minutes prior to and during dosing, as well as for at least 20 hours post-dose. The LVP and ECG signals were digitized at a sampling rate of at least 1000 Hz. The data were analyzed for heart rate (HR) and left-ventricular hemodynamic/mechanical indices that were obtained from the pressure waveform, including mean systolic (MSP) and end-diastolic (filling, EDP) pressures, the peak rates of pressure change during systole/diastole (dP/dtmax/min), as well as the time-constant of relaxation (tau) and a contractility index (CI: dP/dtmax normalized by the pressure at dP/dtmax). The data were also analyzed for systolic and diastolic intervals, including the estimated durations of the systolic ejection (SET), contraction (CT), active relaxation (RT) and filling intervals (FT), as well as the systolic-to-diastolic interval ratio (S/D: SET/RT+FT), which were derived from the left-ventricular pressure waveform.
# The left-ventricular indices were evaluated only in the sling-restrained animals before and during IV treatment with OM or vehicle. Cardiovascular responses at each dose level were monitored for up to 90 minutes, i.e., over 3 hours total (during IV dosing of VEH and OM on Days 4, 5, 11, and 12 in the dose administration paradigm). Overall, in-sling cardiovascular data are reported at the following pre-determined/targeted time points: prior to dosing (i.e., at baseline, PRE) and approximately at the end of each infusion period (i.e., up to 4 time points during dosing, D1 to D4). Signals were analyzed continuously in 5-minute epochs, with pre-administration (i.e., PRE) values representing the overall mean over at least 5-epochs (i.e., 25 minutes) taken immediately prior to the onset of dosing, while during-dosing values reflect 5-minute averages (i.e., 1 epoch) taken prior to the (estimated) termination of each infusion. Data are presented as both means with standard deviations in summarizing tables/figure; beat-to-beat plots against heart rate are part of the study file.
# [1] = D1, end of 30-min loading infusion, target OM 600 ng/mL
# [2] = D2, end of 60-min maintenance infusion, target OM 600 ng/mL
# [3] = D3, end of 30-min loading infusion, target OM 1000 ng/mL
# [4] = D4, end of 60-min maintenance infusion, target OM 1000 ng/mL
# [5] = PRE, before IV dosing (baseline)
# [6] = baseline after repeated oral IVA 5 mg/kg bid, mean pre-dosing averages across study days
# [7] = baseline after repeated oral IVA 5 mg/kg bid, vs. placebo-control
smiles,measurement,setting,value
COc1cc2c(cc1OC)CC(=O)N(CCCN(C)C[C@H]1Cc3cc(OC)c(OC)cc31)CC2 [IVA],CT % vs. PRE,[1],4%
same,CT (contraction time),[1],63.8 ms
same,EDP % vs. PRE,[1],−10%
same,EDP (left-ventricular end-diastolic pressure),[1],14.4 mmHg
same,FT % vs. PRE,[1],11%
same,FT (filling time),[1],586 ms
same,HR % vs. PRE,[1],−9%
same,HR (heart rate),[1],76 bpm
same,MSP % vs. PRE,[1],0%
same,MSP (left-ventricular mean systolic pressure),[1],138 mmHg
same,RT % vs. PRE,[1],1%
same,RT (relaxation time),[1],88 ms
same,S/D % vs. PRE,[1],−4%
same,"S/D (systolic to diastolic ratio, SET/RT + FT)",[1],0.2
same,SET % vs. PRE,[1],4%
same,SET (systolic ejection time),[1],161 ms
same,Tau % vs. PRE,[1],3 ± 2%
same,Tau (left-ventricular relaxation time-constant),[1],28.7 ± 1.7 ms
same,Vmax % vs. PRE,[1],0 ± 1%
same,Vmax (estimated maximal velocity of myocardial contractile-element shortening),[1],36.9 ± 1.3 s⁻¹
same,dP/dtmax % vs. PRE,[1],−2%
same,dP/dtmax (peak rate of LV pressure change during systole),[1],"2,606 mmHg/s"
same,dP/dtmin % vs. PRE,[1],−2%
same,dP/dtmin (peak rate of LV pressure change during diastole),[1],"−2,365 mmHg/s"
same,CT % vs. PRE,[2],9%
same,CT (contraction time),[2],67.2 ms
same,EDP % vs. PRE,[2],0%
same,EDP (left-ventricular end-diastolic pressure),[2],15.3 mmHg
same,FT % vs. PRE,[2],8%
same,FT (filling time),[2],571 ms
same,HR % vs. PRE,[2],−9%
same,HR (heart rate),[2],76 bpm
same,MSP % vs. PRE,[2],5%
same,MSP (left-ventricular mean systolic pressure),[2],145 mmHg
same,RT % vs. PRE,[2],4%
same,RT (relaxation time),[2],90 ms
same,S/D % vs. PRE,[2],0%
same,"S/D (systolic to diastolic ratio, SET/RT + FT)",[2],0.25
same,SET % vs. PRE,[2],6%
same,SET (systolic ejection time),[2],163 ms
same,Tau % vs. PRE,[2],6 ± 2%
same,Tau (left-ventricular relaxation time-constant),[2],29.3 ± 1.0 ms
same,Vmax % vs. PRE,[2],−1 ± 1%
same,Vmax (estimated maximal velocity of myocardial contractile-element shortening),[2],36.7 ± 0.8 s⁻¹
same,dP/dtmax % vs. PRE,[2],2%
same,dP/dtmax (peak rate of LV pressure change during systole),[2],"2,704 mmHg/s"
same,dP/dtmin % vs. PRE,[2],4%
same,dP/dtmin (peak rate of LV pressure change during diastole),[2],"−2,492 mmHg/s"
same,CT % vs. PRE,[3],6%
same,CT (contraction time),[3],64.9 ms
same,EDP % vs. PRE,[3],−4%
same,EDP (left-ventricular end-diastolic pressure),[3],14.5 mmHg
same,FT % vs. PRE,[3],24%
same,FT (filling time),[3],651 ms
same,HR % vs. PRE,[3],−17%
same,HR (heart rate),[3],69 bpm
same,MSP % vs. PRE,[3],3%
same,MSP (left-ventricular mean systolic pressure),[3],143 mmHg
same,RT % vs. PRE,[3],6%
same,RT (relaxation time),[3],92 ms
same,S/D % vs. PRE,[3],−8%
same,"S/D (systolic to diastolic ratio, SET/RT + FT)",[3],0.23
same,SET % vs. PRE,[3],8%
same,SET (systolic ejection time),[3],167 ms
same,Tau % vs. PRE,[3],5 ± 3%
same,Tau (left-ventricular relaxation time-constant),[3],29.2 ± 1.0 ms
same,Vmax % vs. PRE,[3],1 ± 2%
same,Vmax (estimated maximal velocity of myocardial contractile-element shortening),[3],37.2 ± 0.7 s⁻¹
same,dP/dtmax % vs. PRE,[3],0%
same,dP/dtmax (peak rate of LV pressure change during systole),[3],"2,662 mmHg/s"
same,dP/dtmin % vs. PRE,[3],1%
same,dP/dtmin (peak rate of LV pressure change during diastole),[3],"−2,425 mmHg/s"
same,CT % vs. PRE,[4],11%
same,CT (contraction time),[4],67.9 ms
same,EDP % vs. PRE,[4],−9%
same,EDP (left-ventricular end-diastolic pressure),[4],14.2 mmHg
same,FT % vs. PRE,[4],9%
same,FT (filling time),[4],577 ms
same,HR % vs. PRE,[4],−12%
same,HR (heart rate),[4],74 bpm
same,MSP % vs. PRE,[4],4%
same,MSP (left-ventricular mean systolic pressure),[4],143 mmHg
same,RT % vs. PRE,[4],5%
same,RT (relaxation time),[4],91 ms
same,S/D % vs. PRE,[4],0%
same,"S/D (systolic to diastolic ratio, SET/RT + FT)",[4],0.25
same,SET % vs. PRE,[4],7%
same,SET (systolic ejection time),[4],165 ms
same,Tau % vs. PRE,[4],3 ± 2%
same,Tau (left-ventricular relaxation time-constant),[4],28.8 ± 1.5 ms
same,Vmax % vs. PRE,[4],1 ± 1%
same,Vmax (estimated maximal velocity of myocardial contractile-element shortening),[4],37.3 ± 1.0 s⁻¹
same,dP/dtmax % vs. PRE,[4],2%
same,dP/dtmax (peak rate of LV pressure change during systole),[4],"2,702 mmHg/s"
same,dP/dtmin % vs. PRE,[4],2%
same,dP/dtmin (peak rate of LV pressure change during diastole),[4],"−2,457 mmHg/s"
same,CT (contraction time),[5],61.4 ± 0.6 ms
same,EDP (left-ventricular end-diastolic pressure),[5],15.7 mmHg
same,FT (filling time),[5],535 ± 46 ms
same,HR (heart rate),[5],85 bpm
same,MSP (left-ventricular mean systolic pressure),[5],138 mmHg
same,RT (relaxation time),[5],87 ± 1 ms
same,"S/D (systolic to diastolic ratio, SET/RT + FT)",[5],0.26
same,SET (systolic ejection time),[5],155 ± 2 ms
same,Tau (left-ventricular relaxation time-constant),[5],27.9 ± 1.4 ms
same,Vmax (estimated maximal velocity of myocardial contractile-element shortening),[5],37.1 ± 1.1 s⁻¹
same,dP/dtmax (peak rate of LV pressure change during systole),[5],"2,661 mmHg/s"
same,dP/dtmin (peak rate of LV pressure change during diastole),[5],"−2,407 mmHg/s"
same,CT,[6],61 ± 1 ms
same,FT,[6],577 ± 49 ms
same,HR,[6],82 ± 5 bpm
same,LV-EDP,[6],16 ± 2 mmHg
same,LV-MSP,[6],137 ± 3 mmHg
same,LV-Tau,[6],28.5 ± 1.4 ms
same,LV-Vmax,[6],37.0 ± 1.0 s⁻¹
same,LV-dP/dtmax,[6],"2,644 ± 79 mmHg/s"
same,LV-dP/dtmin,[6],"−2,367 ± 91 mmHg/s"
same,RT,[6],88 ± 1 ms
same,S/D,[6],0.24 ± 0.01
same,SET,[6],157 ± 2 ms
same,CT change vs. CTRL,[7],(−9 ± 1) %
same,LV-MSP change vs. CTRL,[7],(4 ± 2) %
same,LV-Tau change vs. CTRL,[7],(−3 ± 3) %
same,LV-Vmax change vs. CTRL,[7],(5 ± 3) %
same,LV-dP/dtmin change vs. CTRL,[7],(8 ± 3) %
same,RT change vs. CTRL,[7],(−2 ± 2) %
same,SET change vs. CTRL,[7],(4 ± 2) %
